The source of these data is PubChem BioAssay (NCI).

Among the test systems are NCI-H460 lung; TK-10 renal; EKVX NSCLC; SNB-78 CNS; SN12C renal; KM20L2 colon; SK-MEL-5 melanoma; SF-268 CNS; BT-549 breast; LOX IMVI melanoma.
Holding throughout (assay): NCI tumour cell line growth inhibition, 48 h

Values joined by “and” are separate entries in the source; they are usually repeats but may differ in a detail not shown here. Equal entries are not always repeated.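 Values below derive from 48-hour exposures of cells grown in 96-well plates, with endpoints linearly interpolated between the two concentrations bracketing the appropriate inhibition level. GI50 is the concentration that inhibits growth by half. TGI denotes the concentration required for complete inhibition of growth.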

With `CCNC(=O)O/N=C1\CCC2[C@@H]3CC=C4C[C@@H](OC5CCCCO5)CC[C@]4(C)C3CC[C@]12C` (some centres undefined), the TGI turned out to be 6.21 µM in the experiment on NCI-H460 lung; 3.81 µM with TK-10 renal; 5.78 µM in the experiment on EKVX NSCLC; 6.42 µM in the experiment with SNB-78 CNS; 6.07 µM in the experiment on SN12C renal; 12.4 µM in the experiment with KM20L2 colon. Besides, the TGI with SK-MEL-5 melanoma is over 100 µM.

Turning to `COc1cc2c(cc1OC)C1Cc3cc(OC)c(OC)cc3C(C2)N1C`, the TGI was over 100 µM with SF-268 CNS; over 100 µM in the experiment on NCI-H460 lung; over 75 µM in the experiment on BT-549 breast; over 100 µM in the experiment on TK-10 renal; over 100 µM with EKVX NSCLC; over 100 µM in the experiment with SNB-78 CNS. Further, the TGI was over 100 µM in the experiment on SN12C renal, over 100 µM in the experiment on KM20L2 colon, over 100 µM in the experiment with SK-MEL-5 melanoma and over 75 µM in the experiment with LOX IMVI melanoma. Further, the GI50 in the experiment with NCI-H460 lung was 30.3 µM and 78.9 µM; in the experiment on TK-10 renal it was 36.3 µM and > 100 µM.

For `COc1ccccc1NC(=O)c1nc2ccc([N+](=O)[O-])cc2nc1C`, the TGI in the experiment on SF-268 CNS, in the experiment with NCI-H460 lung, with TK-10 renal, with EKVX NSCLC, with SN12C renal and with KM20L2 colon was over 100 µM each time. Moreover, the TGI with SK-MEL-5 melanoma and in the experiment on LOX IMVI melanoma was over 100 µM each time.

Regarding `Cc1ccc(S(=O)OCC23CC4CC(CC(C4)C2)C3)cc1` (centres undefined), the TGI in the experiment on SF-268 CNS, in the experiment with NCI-H460 lung, in the experiment with TK-10 renal, in the experiment on EKVX NSCLC, with SNB-78 CNS and in the experiment on SN12C renal was over 100 µM each time. Further, the TGI in the experiment with KM20L2 colon, with SK-MEL-5 melanoma and in the experiment with LOX IMVI melanoma was over 100 µM throughout.

In the case of `OCc1c[te]c(-c2ccccc2)c1`, the TGI was over 100 µM in the experiment on NCI-H460 lung; over 100 µM with TK-10 renal; over 100 µM with EKVX NSCLC; over 100 µM in the experiment with SNB-78 CNS; 78.7 µM in the experiment with SN12C renal; over 100 µM with KM20L2 colon. The compound also yielded a TGI in the experiment with SK-MEL-5 melanoma of over 100 µM.

With `CC#CC1C2CCCC1(CSc1ccccc1)NC(=O)O2` (centres undefined), the TGI with SF-268 CNS, with NCI-H460 lung, in the experiment on TK-10 renal, in the experiment on EKVX NSCLC, in the experiment on SNB-78 CNS and in the experiment on SN12C renal was over 100 µM throughout. Moreover, the TGI in the experiment on KM20L2 colon and with SK-MEL-5 melanoma was over 100 µM throughout.

Take `O=C(COC(=O)c1cccc2c(=O)c3ccccc3[nH]c12)Nc1ccc(C(=O)O)cc1`: the TGI in the experiment on SF-268 CNS is over 100 µM; with NCI-H460 lung, over 100 µM; in the experiment with TK-10 renal, over 10 µM; in the experiment on EKVX NSCLC it was over 100 µM; in the experiment with SNB-78 CNS it was over 100 µM; in the experiment with SN12C renal, over 100 µM. For the same compound, the TGI in the experiment on KM20L2 colon is over 100 µM; with SK-MEL-5 melanoma, over 100 µM; with LOX IMVI melanoma it was over 10 µM.

Regarding `Cc1cc(C)nc(NS(=O)(=O)c2ccc(Nc3c4ccc(Cl)cc4nc4c(C(=O)NCCN(C)C)cccc34)cc2)n1`, the TGI in the experiment on SF-268 CNS, with NCI-H460 lung, with TK-10 renal, with EKVX NSCLC, in the experiment on SNB-78 CNS and in the experiment with SN12C renal was over 100 µM in each case. Also, the TGI with KM20L2 colon, in the experiment on SK-MEL-5 melanoma and in the experiment on LOX IMVI melanoma was over 100 µM each time.

Turning to `NNC(=O)N/N=C1\C(=O)N(c2ccc(Cl)c(Cl)c2)C(=O)C(=O)C1c1nc2ccccc2s1` (centres undefined), the TGI in the experiment with SF-268 CNS, in the experiment on NCI-H460 lung, in the experiment with TK-10 renal, with EKVX NSCLC, in the experiment with SNB-78 CNS and with SN12C renal was over 100 µM throughout. Besides, the TGI in the experiment on KM20L2 colon and with SK-MEL-5 melanoma was over 100 µM in each case.

As for `O=C(/C(=C\c1ccc(Cl)cc1)c1ccccc1)c1ccccc1`, the TGI with SF-268 CNS, with NCI-H460 lung, in the experiment on TK-10 renal, in the experiment on EKVX NSCLC, in the experiment on SNB-78 CNS and in the experiment on SN12C renal was over 100 µM throughout. The same compound returned a TGI with LOX IMVI melanoma of over 100 µM.

Regarding `COC(=O)C(Cc1nc2ccccc2nc1C)/C(=N\NC(N)=O)C(=O)Nc1cccc([N+](=O)[O-])c1` (centres undefined), the TGI with SF-268 CNS, with NCI-H460 lung, in the experiment on TK-10 renal, with EKVX NSCLC, in the experiment on SNB-78 CNS and with SN12C renal was over 100 µM throughout. In addition, the TGI with KM20L2 colon, in the experiment with SK-MEL-5 melanoma and with LOX IMVI melanoma was over 100 µM each time.

For the compound `COc1ccc(C2C(C)C(=O)C(C)C(c3ccc(OC)cc3)N2N=O)cc1` (centres undefined), the GI50 in the experiment on SF-268 CNS is 78.1 µM; in the experiment on NCI-H460 lung it was over 750 µM; in the experiment with TK-10 renal, 147 µM; in the experiment on SNB-78 CNS, > 46.2 µM and 96.1 µM; in the experiment on SN12C renal, over 750 µM; in the experiment on SK-MEL-5 melanoma, over 750 µM. Further, the GI50 in the experiment on LOX IMVI melanoma was over 750 µM. Moreover, the TGI in the experiment with SF-268 CNS is over 1000 µM; in the experiment with NCI-H460 lung, over 1000 µM; in the experiment with TK-10 renal, 488 µM and 245 µM; with EKVX NSCLC it was over 1000 µM; with SNB-78 CNS, > 78.2 µM and 750 µM and > 902 µM; with SN12C renal, over 1000 µM. In addition, the TGI in the experiment on KM20L2 colon is over 1000 µM; in the experiment with SK-MEL-5 melanoma, over 750 µM; with LOX IMVI melanoma it was over 1000 µM.
